The target in the assay is T1, PGK2 (Toxoplasma gondii, UniProt A0A7J6KGR7).
T1 construct: gene TGRH88_001020; His-SUMO fusion, E. coli BL21(DE3), His-tag resin
T1 sequence (A0A7J6KGR7 1-593): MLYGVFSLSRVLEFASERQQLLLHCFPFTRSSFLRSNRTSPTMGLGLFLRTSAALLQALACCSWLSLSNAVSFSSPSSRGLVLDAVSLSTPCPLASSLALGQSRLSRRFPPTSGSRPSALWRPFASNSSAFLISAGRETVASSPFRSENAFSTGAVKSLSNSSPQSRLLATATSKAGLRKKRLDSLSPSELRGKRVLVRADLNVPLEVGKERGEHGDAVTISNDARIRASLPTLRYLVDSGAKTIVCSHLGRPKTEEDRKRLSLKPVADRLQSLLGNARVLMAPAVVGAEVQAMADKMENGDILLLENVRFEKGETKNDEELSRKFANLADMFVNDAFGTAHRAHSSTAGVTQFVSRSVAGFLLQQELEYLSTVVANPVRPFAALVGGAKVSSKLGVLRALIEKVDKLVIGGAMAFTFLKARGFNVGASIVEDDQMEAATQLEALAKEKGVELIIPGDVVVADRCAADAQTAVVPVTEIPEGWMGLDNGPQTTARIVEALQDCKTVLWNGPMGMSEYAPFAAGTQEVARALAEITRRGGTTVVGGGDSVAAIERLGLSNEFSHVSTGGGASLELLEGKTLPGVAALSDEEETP
Put plainly: NADH-coupled colorimetric PGK assay kit, OD340. It counts as biochemical. The settings on record: reverse direction of PGK; 0-960 uM substrate, 5 ug/ml enzyme, 2 min.

On to `O=C(O)[C@H](O)COP(=O)(O)O` [3-phosphoglycerate], for which the “NADH-coupled colorimetric PGK assay kit, OD340” value was “assayed with recombinant enzymes under different concentrations of 3-phosphoglycerate (3-PG)”.

(Values after article PMC9744290, “Two apicoplast dwelling glycolytic enzymes provide key substrates for metabolic pathways in the apicoplast and are critical for Toxoplasma growth” (PLOS Pathogens, 2022).)
